Source: patent US10087191B2, “Piperidine derivative and preparation method and pharmaceutical use thereof” (Jiangsu Hengrui Medicine Co., Ltd., priority 2015, dated 2018)
Like-named read-outs stand apart in the source and are kept apart here.

Assays:
Type in all cases: cell-based
MCF7 cells = assay: Inhibition of the proliferation of MCF7 cells (Cell Titer-Glo); conditions: Homo sapiens, MCF-7 cells, 72 hours, read-out: IC50 value of inhibition effect on the proliferation of MCF7 cells
Method: The object of this experiment was to determine the inhibition effect of the compounds on the proliferation activity of MCF7 cells, and the in vitro activity of the compounds was evaluated according to the IC50 value.
After incubation for 24 hours, the medium was removed, then 90 μl of the medium containing 2% FBS and 10 μl of the drug were added to each well, 10 μl of DMSO were added to the control group, and the blank group contained only 100 μl medium containing 2% FBS. The plate was gently shaken and incubated in a incubator at 37° C., 5% CO2. After 72 hours, 50 μl of mixed Cell Titer-Glo (Promega, Cat. No. G7571) were added to each well. The plate was shaken until the ingredients were well mixed, and placed at room temperature for 10 minutes, then the chemiluminescence signal value was determined.
The values of the chemiluminescence signals vs the logarithmic concentrations of the compounds were plotted using Graghpad Prism to obtain IC50 values.

ERα = ERα (Homo sapiens (Human), UniProt P03372); assay: Degradation effect on ERα in MCF-7 cells (ERα Duoset ELISA); conditions: read-out: IC50 value of the degradation effect on ERα
Method: In order to determine the degradation effect on ER induced by the compounds of the present invention, the following method was used to determine the degradation effect of the compounds of the present invention on ER.
MCF-7 cell line (TChu 74, Cell Bank of Chinese Academy of Sciences typical culture preservation Committee)
ERα Duoset Kit (#DYC5715E, R&D System)
MCF-7 cells were incubated in DMEM/F-12 medium containing 10% FBS.
On the first day of the experiment, MCF-7 cells were resuspended in DMEM/F-12 medium containing 10% FBS treated by activated carbon, then inoculated into a 48-well plate with a density of 50,000 cells/well and incubated for 22-24 hours.
On the second day of the experiment, the test compound was diluted with medium and added to a 48-well plate. The ERα-capture antibody was diluted to 1 μg/ml with PBS, and added to a 96-well plate at 100 μl/well. The plate was sealed and coated overnight at room temperature.
On the third day of the experiment, the coated 96-well plate was washed twice with PBS, added with a sealing solution (1% BSA in PBS) at 110 μl/well and sealed for 1 hour at room temperature. The 48-well plate was washed once with PBS, and the residual liquid was removed. Then, 60 μl of lysis (6 M urea, 1 mM EDTA, 0.5% Triton X-100, 1 mM PMSF, Protease Inhibitor cocktail) was added to each well. After lysis on ice for 15 minutes, the diluent (1 mM EDTA, 0.5% TritonX-100 dissolved in PBS) was added. The cell-diluted lysate was transferred to a 96-well plate at 100 μl/well, then the plate was incubated at room temperature for 2 hours. The diluted primary antibody was added after the plate was washed 4 times with a washing liquid (PBST). After incubation for 1 hour, the 96-well plate was washed 4 times, and the second antibody was added, then the plate was incubated for 30 minutes. After the plate was washed with a washing liquid, TMB chromogenic solution was added and incubated for 15 minutes. The reaction was stopped by the addition of 1 M H2SO4, then the light absorption at 450 nm was read.

estrogen receptor (ER) = estrogen receptor (ER) (Homo sapiens (Human), UniProt P03372); assay: Inhibition of the binding of estrogen (E) to estrogen receptor (ER), MCF-7/ERE-luciferase reporter cells; conditions: MCF-7/ERE-luciferase cells, 0.1 nM estradiol, 24 hours; read-out: IC50 value of inhibition effect on the binding of E to ER
Method: The inhibition effect of the compounds on the binding of E to ER in vitro was tested by the following method.
The object of this experiment was to determine the inhibition effect of the compounds on the binding of E to ER, and the in vitro activity of the compounds was evaluated according to the IC50 value.
MCF-7/ERE-luciferase cells were inoculated into the MEM medium (hyclone, SH30024.01B) containing 10% charcoal stripped FBS (Moregate, FBSF), 1% sodium pyruvate (Sigma, Cat. No. S8636), 1% nonessential amino acids (Sigma, Cat. No. M7145) and 500 μg/ml G418 in a 96-well plate with a density of 30,000 cells/well, and the cells were incubated under the conditions of 37° C. and 5% CO2. […] After incubation for 24 hours, the medium was removed, then 0.1 nM estradiol (Sigma, Cat. No. E2758) and 10 μl of the drug diluted with the medium were added to each well, and the control group was added with DMSO. The plate was gently shaken and incubated in a incubator at 37° C., 5% CO2. After 24 hours, the cell culture medium was discarded.
The inhibition effect of the compounds of the present invention on the binding of E to ER was tested by the experiment described above.

Sequence of ERα (P03372 whole entry): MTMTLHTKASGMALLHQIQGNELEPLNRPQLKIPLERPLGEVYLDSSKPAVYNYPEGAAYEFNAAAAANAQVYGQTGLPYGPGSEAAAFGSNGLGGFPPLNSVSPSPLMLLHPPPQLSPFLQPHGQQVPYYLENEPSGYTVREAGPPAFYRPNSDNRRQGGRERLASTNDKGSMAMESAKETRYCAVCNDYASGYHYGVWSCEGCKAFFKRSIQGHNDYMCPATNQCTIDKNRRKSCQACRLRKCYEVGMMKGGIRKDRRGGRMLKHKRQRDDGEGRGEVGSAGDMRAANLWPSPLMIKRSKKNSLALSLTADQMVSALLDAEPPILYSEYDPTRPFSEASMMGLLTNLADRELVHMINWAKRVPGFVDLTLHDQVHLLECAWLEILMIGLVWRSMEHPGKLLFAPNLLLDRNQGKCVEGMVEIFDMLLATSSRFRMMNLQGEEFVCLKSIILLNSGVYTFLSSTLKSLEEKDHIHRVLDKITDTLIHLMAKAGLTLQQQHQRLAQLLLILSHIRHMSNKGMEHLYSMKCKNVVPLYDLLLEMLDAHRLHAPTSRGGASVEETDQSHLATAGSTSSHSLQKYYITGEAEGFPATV
Sequence of estrogen receptor (ER) (P03372 whole entry): as above

Structure (SMILES) | IC50 (MCF7 cells) [nM] | DC50 (ERα; MCF-7 cells) [nM] | DC50 (ERα) [nM] | IC50 (estrogen receptor (ER)) [nM]
CCn1cc(-c2cc3c(cc2F)C(c2c(F)cc(/C=C/C(=O)O)cc2F)N(CC(C)(C)F)C(C)C3)cn1 [Example 17, (E)-3-(4-((1S,3R/1R,3S)-6-(1-ethyl-1H-pyrazol-4-yl)-7-fluoro-2-(2-fluoro-2-methylpropyl)-3-methyl-1,2,3,4-tetrahydroisoquinolin-1-yl)-3,5-difluorophenyl)acrylic acid] | 0.34 | 1.43 |  | 
CC1Cc2cc(-c3cnn(C)c3)c(F)cc2C(c2c(F)cc(/C=C/C(=O)O)cc2F)N1CC(C)(C)F [Example 16, (E)-3-(3,5-difluoro-4-((1S,3R/1R,3S)-7-fluoro-2-(2-fluoro-2-methylpropyl)-3-methyl-6-(1-methyl-1H-pyrazol-4-yl)-1,2,3,4-tetrahydroisoquinolin-1-yl)phenyl)acrylic acid] | 0.47 | 3.11 |  | 
Cc1ncc(-c2ccc3c(c2)CC(C)N(CC(C)(C)F)C3c2c(F)cc(/C=C/C(=O)O)cc2F)o1 [Example 49, (E)-3-(3,5-difluoro-4-((1S,3R/1R,3S)-2-(2-fluoro-2-methylpropyl)-3-methyl-6-(2-methyloxazol-5-yl)-1,2,3,4-tetrahydroisoquinolin-1-yl)phenyl)acrylic acid] | 1.63 | 6.29 |  | 
CC1Cc2c(sc3ccccc23)C(c2c(F)cc(/C=C/C(=O)O)cc2F)N1CC(C)(C)F [Example 5, (E)-3-(3,5-difluoro-4-((1R,3R/1S,3S)-2-(2-fluoro-2-methylpropyl)-3-methyl-1,2,3,4-tetrahydrobenzo[4,5]thieno[2,3-c]pyridin-1-yl)phenyl)acrylic acid] | 1.2 | 3.94 |  | 
CCCn1cc(-c2ccc3c(c2)CC(C)N(CC(C)(C)F)C3c2c(F)cc(/C=C/C(=O)O)cc2F)cn1 [Example 18, (E)-3-(3,5-difluoro-4-((1S,3R/1R,3S)-2-(2-fluoro-2-methylpropyl)-3-methyl-6-(1-propyl-1H-pyrazol-4-yl)-1,2,3,4-tetrahydroisoquinolin-1-yl)phenyl)acrylic acid] | 1.03 | 4.2 |  | 
CC1Cc2cc(-c3cnn(C(F)F)c3)ccc2C(c2c(F)cc(/C=C/C(=O)O)cc2F)N1CC(C)(C)F (stereo not drawn) [Example 13] | 0.46 | 6.93 |  | 
CC1Cc2cc3c(cc2C(c2c(F)cc(/C=C/C(=O)O)cc2F)N1CC(C)(C)F)OCO3 [Example 1, (E)-3-(3,5-difluoro-4-((5S,7R/5R,7S)-6-(2-fluoro-2-methylpropyl)-7-methyl-5,6,7,8-tetrahydro-[1,3]dioxolo[4,5-g]isoquinolin-5-yl)phenyl)acrylic acid] | 0.12 |  | 0.11 | 
C[C@H]1Cc2c(oc3ccccc23)[C@H](c2c(F)cc(/C=C/C(=O)O)cc2F)N1CC(C)(C)F [Example 69, (E)-3-(3,5-difluoro-4-((1S,3S)-2-(2-fluoro-2-methylpropyl)-3-methyl-1,2,3,4-tetrahydrobenzofuro[2,3-c]pyridin-1-yl)phenyl)acrylic acid] | 6.41 |  |  | 34
Cc1nc2ccc(-c3ccc4c(c3)CC(C)N(CC(C)(C)F)C4c3c(F)cc(/C=C/C(=O)O)cc3F)cc2s1 [Example 66, (E)-3-(3,5-difluoro-4-((1S,3R/1R,3S)-2-(2-fluoro-2-methylpropyl)-3-methyl-6-(2-methylbenzo[d]thiazol-6-yl)-1,2,3,4-tetrahydroisoquinolin-1-yl)phenyl)acrylic acid] | 1.62 |  |  | 3.25
Cc1ccc(-c2ccc3c(c2)CC(C)N(CC(C)(C)F)C3c2c(F)cc(/C=C/C(=O)O)cc2F)s1 [Example 43, (E)-3-(3,5-difluoro-4-((1S,3R/1R,3S)-2-(2-fluoro-2-methylpropyl)-3-methyl-6-(5-methylthiophen-2-yl)-1,2,3,4-tetrahydroisoquinolin-1-yl)phenyl)acrylic acid] | 2.66 |  |  | 4.98
CC1Cc2sc3ccccc3c2C(c2c(F)cc(/C=C/C(=O)O)cc2F)N1CC(C)(C)F [Example 6, (E)-3-(3,5-difluoro-4-((1R,3R/1S,3S)-2-(2-fluoro-2-methylpropyl)-3-methyl-1,2,3,4-tetrahydrobenzo[4,5]thieno[3,2-c]pyridin-1-yl)phenyl)acrylic acid] | 1.91 | 1.92 |  | 
CC1Cc2cc3c(cc2C(c2ccc(/C=C/C(=O)O)cc2)N1CC(C)(C)F)OCO3 (stereo not drawn) [Example 83, (E)-3-(4-(6-(2-fluoro-2-methylpropyl)-7-methyl-5,6,7,8-tetrahydro-[1,3]dioxolo[4,5-g]isoquinolin-5-yl)phenyl)acrylic acid] | 17.5 |  |  | 20.5
CC1Cc2cc(-c3cnc4ccccc4c3)ccc2C(c2c(F)cc(/C=C/C(=O)O)cc2F)N1CC(C)(C)F [Example 62, (E)-3-(3,5-difluoro-4-((1S,3R/1R,3S)-2-(2-fluoro-2-methylpropyl)-3-methyl-6-(quinolin-3-yl)-1,2,3,4-tetrahydroisoquinolin-1-yl)phenyl)acrylic acid] | 16.1 |  |  | 13.6
CC1Cc2c(oc3cc(Cl)ccc23)C(c2c(F)cc(/C=C/C(=O)O)cc2F)N1CC(C)(C)F [Example 85, (E)-3-(4-((1R,3R/1S,3S)-7-chloro-2-(2-fluoro-2-methylpropyl)-3-methyl-1,2,3,4-tetrahydrobenzofuro[2,3-c]pyridin-1-yl)-3,5-difluorophenyl)acrylic acid] | 7.3 |  |  | 21.9
CC1Cc2c(ccc3[nH]ncc23)C(c2c(F)cc(/C=C/C(=O)O)cc2F)N1CC(C)(C)F [Example 70, (E)-3-(3,5-difluoro-4-((6S,8R/6R,8S)-7-(2-fluoro-2-methylpropyl)-8-methyl-6,7,8,9-tetrahydro-3H-pyrazolo[4,3-f]isoquinolin-6-yl)phenyl)acrylic acid] | 0.14 | 0.77 |  | 
CC1Cc2c(ccc3[nH]ncc23)C(c2ccc(/C=C/C(=O)O)cc2)N1CC(C)(C)F [Example 101, (E)-3-(4-((6S,8R/6R,8S)-7-(2-fluoro-2-methylpropyl)-8-methyl-6,7,8,9-tetrahydro-3H-pyrazolo[4,3-f]isoquinolin-6-yl)phenyl)acrylic acid] | 2.07 |  |  | 3.14
CC1Cc2c(ccc3c2OCO3)C(c2c(F)cc(/C=C/C(=O)O)cc2F)N1CC(C)(C)F [Example 82, (E)-3-(3,5-difluoro-4-((6S,8R/6R,8S)-7-(2-fluoro-2-methylpropyl)-8-methyl-6,7,8,9-tetrahydro-[1,3]dioxolo[4,5-f]isoquinolin-6-yl)phenyl)acrylic acid] | 4.43 |  |  | 13.6
CC1Cc2cc(-c3ccc4ncccc4c3)ccc2C(c2c(F)cc(/C=C/C(=O)O)cc2F)N1CC(C)(C)F [Example 63, (E)-3-(3,5-difluoro-4-((1S,3R/1R,3S)-2-(2-fluoro-2-methylpropyl)-3-methyl-6-(quinolin-6-yl)-1,2,3,4-tetrahydroisoquinolin-1-yl)phenyl)acrylic acid] | 0.58 |  |  | 1.7
